# Laboratory results taken from US7029671B1, “Method for activating human antigen-presenting cells, activated human antigen-presenting cells, and use thereof” (Kirin Brewery Company, Limited, priority 1996, dated 2006).
# Experiments:
# [1] = test system: Murine melanoma B16 cells; assay: Pharmacological Test 8: APC therapy of mice with subcutaneous B16 melanoma, tumor volume; assay type: in vivo, mouse; settings: KRN7000 100 μg/kg i.v. on days 1, 5 and 9 (positive control)
# Method: The experiment was performed with BDF1 mice (6-week-old, female), which were divided into groups consisting of 6 mice. Murine melanoma B16 cells were implanted subcutaneously into each mouse at a level of 1.5×10^6 cells/mouse (implantation day: day 0). Several types of pretreated APCs were prepared in the same manner as in Pharmacological Test 3, in which APCs were pretreated with a vehicle (DMSO, final concentration: 0.1%) (V-APC), with both the vehicle (DMSO, final concentration: 0.1%) and a B16-tumor cell lysate (V-T-APC), with KRN7000 (final concentration: 100 ng/mL) (KRN-APC), and with both KRN7000 (final concentration: 100 ng/mL) and a B16-tumor cell lysate (KRN-T-APC), respectively. Each of the pretreated APCs was injected intravenously into the mice at a dose of 5×10^5 cells/mouse on day 1. As a positive control, KRN7000 was injected intravenously into the mice at a dose of 100 μg/kg on days 1, 5 and 9. The volume of the subcutaneous tumor in each mouse was measured.
# [2] = test system: Human Umbilibal Cord Blood-derived APC; assay: Pharmacological Test 12: autologous MLR assay with human umbilical cord blood monocyte-derived APCs; assay type: cell-based; settings: KRN7000 100 ng/mL
# Method: A monocyte fraction was prepared from human umbilical cord blood mononuclear cells by Percol density-gradient centrifugation. The monocyte fraction was cultured in the presence of GM-CSF (50 ng/mL) and IL-4 (100 ng/mL), and simultaneously either a vehicle (V; 0.1% DMSO) or KRN7000 (KRN; 100 ng/mL) was added thereto. After culturing for 3 days, the cells were recovered and washed with the medium 3 times to give V-APC-GM and KRN-APC-GM, respectively, which were provided for use as APCs. As response cells, human umbilical cord blood-derived FcR^− cells were used for autologous MLR assay.
# [3] = test system: Murine colon adenocarcinoma Colon26 cells; assay: Pharmacological Test 6: APC therapy of mice implanted intrasplenically with Colon26 cells, liver weight; assay type: in vivo, mouse
# Method: The experiment was performed to study an anti-tumor effect of murine bone marrow-derived APCs activated with KRN7000 on mice implanted with tumor cells. All experiments were performed with CDF1 mice (6-week-old, female), which were divided into groups consisting of 5 mice. Murine colon adenocarcinoma Colon26 cells were implanted into each mouse intrasplenically at a level of 2×10^6 cells/mouse (inoculation day: day 0). On day 1, the vehicle-pretreated APCs (V-APC) and the KRN7000-pretreated (100 ng/mL) APCs (KRN-APC) both prepared in the same manner as in Pharmacological Test 5 were individually injected intravenously to the mice at a level of 8×10^5 cells/mouse. As a positive control, KRN7000 was injected intravenously to the mice at a dose of 100 μg/kg on days 1, 5 and 9. On day 14, the liver was removed from each of the mice and weighed. Here, the liver from the mouse that had not been implanted with the tumor cells was about 1 g. Accordingly, the substantial tumor weight was determined by subtracting 1 g from the weight of the liver of the tumor-implanted mouse.
# [4] = test system: Human Peripheral Blood-derived APCs; assay: Pharmacological Test 9: allogeneic MLR assay with human peripheral blood monocyte-derived APCs cultured 3 days; assay type: cell-based; settings: conclusion from Pharmacological Tests 9, 10 and 11; KRN7000 100 ng/mL
# Method: A monocyte fraction was prepared from human peripheral blood mononuclear cells by Percol density-gradient centrifugation. The monocyte fraction was cultured in the presence or absence of GM-CSF (50 ng/mL) and IL-4 (100 ng/mL), and simultaneously either a vehicle (v; DMSO, 0.1%) or KRN7000 (KRN; 100 ng/mL) was added thereto. After culturing for 3 days, the cells were collected and washed with the medium 3 times to give V-APC, KRN-APC, V-APC-GM and KRN-APC-GM (where “GM” refers to the APCs cultured in the presence of GM-CSF and IL-4), which were then provided for use as APCs. As responder cells, human peripheral blood-derived FcR^− cells were used to perform allogeneic MLR assay.
# [5] = test system: dendritic cell-rich APCs prepared from the murine spleen; settings: Koezuka 1995; Yamaguchi 1996; cited from earlier work
# [6] = test system: Murine T cell lymphoma EL-4 cells; assay: Pharmacological Test 4: APC therapy of EL-4-bearing mice, survival period; assay type: in vivo, mouse
# Method: To study an anti-tumor effect of murine spleen-derived APCs activated with KRN7000 on mice implanted with tumor cells, experiments were performed with BDF1 mice (6-week-old, female). All experiments included 6 mice per group. Murine T cell lymphoma EL-4 cells were injected intravenously into each mouse at a level of 1×10^5 cells/mouse (injection day: day 0). On day 1, the vehicle-pretreated APCs (V-APC) and the KRN7000-pretreated (100 ng/mL) APCs (KRN-APC) both prepared in the same manner as in Pharmacological Test 3 were each injected intravenously into the mice at a level of 5×10^5 cells/mouse. As a positive control, KRN7000 was injected intravenously into the mice at a dose of 100 μg/kg on days 1, 5 and 9. Each mouse was checked for a sign of life daily to determine its survival period.
# [7] = test system: Human Peripheral Blood-derived APC; assay: Pharmacological Test 1: autologous MLR assay with human peripheral blood-derived APCs pretreated with KRN7000; assay type: cell-based; settings: KRN7000 100 ng/mL, 40 hours; conclusion from autologous MLR
# Method: This experiment was designed to study an effect of KRN7000 (Compound No.14, a representative glycoside compound of the invention) on APCs prepared from human peripheral blood. The APCs (mainly comprised of dendritic cells) derived from human peripheral blood were prepared essentially according to the method of Hsu et al. (supra). Briefly, human peripheral blood was layered over Ficoll-Paque and centrifuged at 2,000 rpm for 35 minutes to give a mononuclear cell fraction. A portion of the mononuclear cell fraction was suspended into PBS (Ca^++, Mg^++ free) supplemented with 5% of inactivated human AB serum. The resultant solution was layered over 50% Percol, and then centrifuged at 3,000 rpm for 20 minutes to give a high-density fraction. The high-density fraction was panned using a human γ-globulin-coated dish to remove FcR^+ cells therefrom (i.e., a monocyte-removed fraction). The resultant fraction was reacted with anti-CD3 monoclonal antibodies, anti-CD21 monoclonal antibodies and anti-CD56 monoclonal antibodies. […]
# The APCs (5×10^4 cells/well) and the responder cells (1×10^5 cells/well) both prepared in the above steps were added to wells of a 96-well flat-bottomed plate, and then subjected to autologous MLR assay. […] The amount of the ^3H-TdR taken up into the cells was determined using a liquid scintillation counter. […]
# [8] = KRN7000 100 μg/kg i.v. 3 times versus KRN-APC once
smiles,measurement,setting,value
"CCCCCCCCCCCCCCCCCCCCCCCCCC(=O)N[C@@H](CO[C@H]1O[C@H](CO)[C@H](O)[C@H](O)[C@H]1O)[C@H](O)[C@H](O)CCCCCCCCCCCCCC [KRN7000, (2S,3S,4R)-1-(α-D-galactopyranosyloxy)-2-hexacosanoylamino-3,4-octadecanediol]",tumor growth-inhibitory effect (volume of the subcutaneous tumor),[1],tumor growth-inhibitory effect
same,activation of APCs derived from human umbilical cord blood,[2],can activate the APCs derived from human umbilical cord blood by various methods
same,tumor growth inhibitory effect compared with one injection of KRN-APC,[3]; [8],at the same level as that when KRN-APC was injected once
same,inhibitory effect on tumor growth (liver weight on day 14),"[3]; KRN7000 100 μg/kg i.v. on days 1, 5 and 9 (positive control)",remarkable inhibitory effect on tumor growth
same,activation of APCs from human peripheral blood,[4],can activate the APCs from human peripheral blood by various methods
same,enhancement of the functions of dendritic cell-rich APCs from murine spleen,[5],can enhance the functions of dendritic cell-rich APCs prepared from the murine spleen
same,survival period,"[6]; EL-4 i.v. day 0, KRN7000 100 μg/kg i.v. on days 1, 5 and 9 (positive control)",remarkable increase in survival period
same,potency of the survival effect compared with one injection of KRN-APC,[6]; [8],weaker than that when KRN-APC was injected only once
same,activating effect on APCs (antigen-presenting function enhancing effect),[7],has an activating effect on the APCs prepared from human peripheral blood
